Several values for one entry are separate records, joined by “and”; a condition that tells them apart may be missing. Equal entries are not always repeated.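 The compound was tested at five concentrations on cells cultured in 96-well plates, with a 48-hour exposure period. Abbreviation: GI50, concentration required for 50% inhibition of growth. Definition used: TGI = concentration required for complete inhibition of growth.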
Columns and labels:
Assay in all cases: NCI-60 cell line screen, 48 h
SK-MEL-5 melanoma = tested on: SK-MEL-5 melanoma
MDA-MB-231 breast = tested on: MDA-MB-231 breast
CCRF-CEM leukemia = tested on: CCRF-CEM leukemia
HOP-92 NSCLC = tested on: HOP-92 NSCLC
SF-268 CNS = tested on: SF-268 CNS
PC-3 prostate = tested on: PC-3 prostate
SNB-19 CNS = tested on: SNB-19 CNS
OVCAR-8 ovarian = tested on: OVCAR-8 ovarian
HCC-2998 colon = tested on: HCC-2998 colon
OVCAR-5 ovarian = tested on: OVCAR-5 ovarian

SMILES	GI50 (SK-MEL-5 melanoma)	TGI (SK-MEL-5 melanoma)	GI50 (MDA-MB-231 breast)	TGI (MDA-MB-231 breast)	GI50 (CCRF-CEM leukemia)	TGI (CCRF-CEM leukemia)	GI50 (HOP-92 NSCLC)	TGI (HOP-92 NSCLC)	GI50 (SF-268 CNS)	TGI (SF-268 CNS)	GI50 (PC-3 prostate)	TGI (PC-3 prostate)	GI50 (SNB-19 CNS)	TGI (SNB-19 CNS) [µM]	GI50 (OVCAR-8 ovarian)	TGI (OVCAR-8 ovarian)	GI50 (HCC-2998 colon)	TGI (HCC-2998 colon)	GI50 (OVCAR-5 ovarian)	TGI (OVCAR-5 ovarian) [µM]
O=C(Nc1ccc(Cl)cc1F)c1cc(Cl)ccc1O	0.209 µM	0.529 µM	0.554 µM	3.46 µM	1.62 µM	> 44.9 µM	0.157 µM	0.553 µM	0.52 µM	> 27.6 µM	1.28 µM	5.64 µM	0.413 µM	> 100	0.619 µM	> 37.2 µM	2.23 µM	8.77 µM	2.74 µM	> 100
CC(=O)OC1CC(C)c2c(Cl)ncnc21 (configuration not stated)	> 100 µM	> 100 µM	> 100 µM	> 100 µM	50.1 µM	> 100 µM	> 100 µM	> 100 µM	> 100 µM	> 100 µM	> 100 µM	> 100 µM	> 100 µM	> 100	> 100 µM	> 100 µM	> 100 µM	> 100 µM	> 100 µM	> 100
NCC(=O)NC(CO)C(=O)O (configuration not stated)	–	> 100 µM	–	> 100 µM	–	> 100 µM	–	> 100 µM	–	> 100 µM	–	> 100 µM	–	> 100	–	> 100 µM	–	> 100 µM	–	> 100
Cc1ccc(C(CC(=O)c2ccccc2)C(C(=O)c2ccccc2)C(c2ccc(C)cc2)C2C(=O)NC(=S)NC2=O)cc1 (configuration not stated)	10.6 µM	> 50 µM	9.5 µM	> 50 µM	15.8 µM	> 50 µM	11 µM	> 50 µM	16.8 µM	> 50 µM	10.4 µM	> 50 µM	25.1 µM	> 50	16.9 µM	> 50 µM	8.68 µM	> 50 µM	31 µM	> 50
Nc1nc(Cl)nc2c1ncn2C1CCC(COP(=O)(O)OP(=O)(O)OP(=O)(O)O)O1 (configuration not stated)	–	–	–	> 100 µM	–	> 100 µM	–	66.6 µM	–	> 100 µM	–	64.3 µM	–	> 100	–	51.9 µM	–	86.1 µM	–	93.3
O=C(c1ccncc1)N1CCN(C2=NS(=O)(=O)c3ccccc3N2c2ccccc2)CC1	11.6 µM	24.1 µM	30.7 µM	75.2 µM	1.95 µM	> 100 µM	4.07 µM	21.4 µM	8.37 µM	> 100 µM	22.2 µM	> 100 µM	15 µM	44.9	27.7 µM	> 100 µM	16.3 µM	37.6 µM	33.4 µM	> 100
O=C1c2ccccc2CCC1(Br)Br	2.32 µM	5.87 µM	1.97 µM	4.72 µM	0.365 µM	2.01 µM	1.27 µM	2.58 µM	4.1 µM	14.1 µM	4.14 µM	16.9 µM	10.4 µM	23.2	2.36 µM	6.04 µM	3.88 µM	9.19 µM	1.76 µM	3.25
COc1ccc(CCN2COc3ccc4ccc(=O)oc4c3C2)cc1OC	–	> 100 µM	–	> 100 µM	–	54.8 µM	–	> 100 µM	–	> 100 µM	–	> 100 µM	–	> 100	–	> 100 µM	–	> 100 µM	–	> 100
Cc1cc(O)c(O)c(Oc2cc(C)cc(O)c2O)c1	–	> 100 µM	–	52.7 µM	–	7.46 µM	–	41.1 µM	–	95 µM	–	> 100 µM	–	> 100	–	45.1 µM	–	> 100 µM	–	> 100
CCCCC/C=C\C/C=C/CCCCCCCCNC(=O)Nc1ccc([N+](=O)[O-])cc1	14.8 µM	32.4 µM	13.9 µM	> 100 µM	4.59 µM	> 100 µM	4.27 µM	35.4 µM	38 µM	> 100 µM	4.45 µM	> 100 µM	9.07 µM	> 100	8.82 µM	> 100 µM	15.7 µM	> 100 µM	30.8 µM	> 100
COc1cccc2cc(-c3nc(C4CCC(C(=O)O)CC4)n4ncnc(N)c34)[nH]c12 (configuration not stated)	0.313 µM and 0.79 µM	4.19 µM and 5.7 µM	0.39 µM and 0.348 µM	23.5 µM and > 10 µM	0.247 µM and 0.816 µM	16.2 µM and > 10 µM	0.0158 µM and 0.0327 µM	0.0988 µM and 0.358 µM	0.294 µM and 0.301 µM	19.5 µM and > 10 µM	0.129 µM and 0.342 µM	2.03 µM and 4.42 µM	1.34 µM and 1.49 µM	> 100	0.371 µM and 0.642 µM	3.78 µM and > 10 µM	0.451 µM and 0.729 µM	35.3 µM and > 10 µM	0.289 µM and 0.658 µM	> 100
Cc1ccc2nc(CC(=O)c3ccc4ccccc4c3)c(=O)[nH]c2c1	–	> 100 µM	–	> 100 µM	–	> 100 µM	–	> 100 µM	–	> 100 µM	–	> 100 µM	–	> 100	–	> 100 µM	–	> 100 µM	–	> 100
Cc1[nH]c2ccccc2c1C1=CC(=O)C=CC1=O	12 µM	25.3 µM	12.9 µM	29.2 µM	–	–	13 µM	26.3 µM	13.1 µM	27.4 µM	12.7 µM	30 µM	16.6 µM	41.6	13.2 µM	34.9 µM	15.7 µM	29.4 µM	17.7 µM	32.8
CN1CCN(CCCOc2ccc3nc(Nc4ccc(C(F)(F)F)c(Cl)c4)ccc3c2)CC1	1.7 µM	3.18 µM	1.13 µM	2.75 µM	1.57 µM	3.64 µM	1.15 µM	2.94 µM	1.66 µM	3.43 µM	1.68 µM	3.56 µM	1.74 µM	3.6	2.07 µM	4.64 µM	1.72 µM	3.26 µM	1.8 µM	3.75

Source: PubChem BioAssay (NCI)
